Measured values reported in patent US6461997B1, “Triazole sulfones having herbicidal activity” (Monsanto Technology LLC, priority 1999, dated 2002).

How the values were obtained:
SOLNI (black nightshade) = test: Pre-emergence herbicidal activity, warm season; assay type: in vivo, Solanum nigrum; settings: GR80 = lowest tested rate (300, 100, 30, 10 g/ha) with 80% or greater inhibition; approx. 14 days after treating; 30/21° C.
In short: (§1)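 GR80 values derive from percent inhibition relative to untreated plants, read roughly 14 days after sowing and pre-emergence soil-surface treatment (compound in 50:50 acetone/water; rates typically 10, 30, 100, 300 g/ha). Warm-season weeds grew at 30/21° C day/night, cool-season ones at 18/13° C; an asterisk marks activity without reaching 80% at the highest rate.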

AMARE (redroot pigweed) = test: Pre-emergence herbicidal activity, warm season; assay type: in vivo, Amaranthus retroflexus; settings: GR80 = lowest tested rate (300, 100, 30, 10 g/ha) with 80% or greater inhibition; approx. 14 days after treating; 30/21° C.
In short: as §1

[1] = test system: CHEAL (common lambsquarters); test: Pre-emergence herbicidal activity, warm season; assay type: in vivo, Chenopodium album; settings: GR80 = lowest tested rate (300, 100, 30, 10 g/ha) with 80% or greater inhibition; approx. 14 days after treating; 30/21° C.
In short: as §1

[2] = test system: CIRAR (canada thistle (seedling)); test: Pre-emergence herbicidal activity, warm season; assay type: in vivo, Cirsium arvense; settings: GR80 = lowest tested rate (300, 100, 30, 10 g/ha) with 80% or greater inhibition; approx. 14 days after treating; 30/21° C.
In short: as §1

ECHCG (barnyardgrass) = test: Pre-emergence herbicidal activity, warm season; assay type: in vivo, Echinochloa crus-galli; settings: GR80 = lowest tested rate (300, 100, 30, 10 g/ha) with 80% or greater inhibition; approx. 14 days after treating; 30/21° C.
In short: (§2)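 Activity is expressed as the rate giving 80% inhibition, with 300, 100, 30 and 10 g/ha typically tested. An asterisk marks activity short of 80% at the top rate. Warm-season grasses were held at 30/21 °C; cool-season blackgrass and wild buckwheat at 18/13 °C; scoring at about 14 days.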

[3] = test system: PANMI (wild proso millet); test: Pre-emergence herbicidal activity, warm season; assay type: in vivo, Panicum miliaceum; settings: GR80 = lowest tested rate (300, 100, 30, 10 g/ha) with 80% or greater inhibition; approx. 14 days after treating; 30/21° C.
In short: as §1

[4] = test system: SORHA (johnsongrass (seedling)); test: Pre-emergence herbicidal activity, warm season; assay type: in vivo, Sorghum halepense; settings: GR80 = lowest tested rate (300, 100, 30, 10 g/ha) with 80% or greater inhibition; approx. 14 days after treating; 30/21° C.
In short: as §2

SETFA (giant foxtail) = test: Pre-emergence herbicidal activity, warm season; assay type: in vivo, Setaria faberi; settings: GR80 = lowest tested rate (300, 100, 30, 10 g/ha) with 80% or greater inhibition; approx. 14 days after treating; 30/21° C.
In short: as §2

[5] = test system: BRAPP (broadleaf signalgrass); test: Pre-emergence herbicidal activity, warm season; assay type: in vivo, Brachiaria platyphylla; settings: GR80 = lowest tested rate (300, 100, 30, 10 g/ha) with 80% or greater inhibition; approx. 14 days after treating; 30/21° C.
In short: as §2

DIGSA (large crabgrass) = test: Pre-emergence herbicidal activity, warm season; assay type: in vivo, Digitaria sanguinalis; settings: GR80 = lowest tested rate (300, 100, 30, 10 g/ha) with 80% or greater inhibition; approx. 14 days after treating; 30/21° C.
In short: as §1

[6] = test system: GALAP (catchweed bedstraw); test: Pre-emergence herbicidal activity, cool season; assay type: in vivo, Galium aparine; settings: lowest tested rate with 80% or greater inhibition; rates 300, 100, 30, 10 g/ha; about 14 days
In short: as §1

POLCO (wild buckwheat) = test: Pre-emergence herbicidal activity, cool season; assay type: in vivo, Polygonum convolvulus; settings: lowest tested rate with 80% or greater inhibition; rates 300, 100, 30, 10 g/ha; about 14 days
In short: as §1

SINAR (wild mustard) = test: Pre-emergence herbicidal activity, cool season; assay type: in vivo, Sinapis arvensis; settings: lowest tested rate with 80% or greater inhibition; rates 300, 100, 30, 10 g/ha; about 14 days
In short: as §1

KCHSC (kochia) = test: Pre-emergence herbicidal activity, cool season; assay type: in vivo, Kochia scoparia; settings: lowest tested rate with 80% or greater inhibition; rates 300, 100, 30, 10 g/ha; about 14 days
Procedure: (§3) Tables 5 to 8 summarize results of tests conducted as described below to determine the pre-emergence herbicidal activity, in the form of a GR80 value, of illustrative compounds of this invention. […] Compounds of the invention were typically applied at rates of 300, 100, 30, and 10 g/ha. Where herbicidal activity was evident but 80% inhibition was not achieved at the highest rate tested, an asterisk (*) is shown in the following tables.
(§4) The pre-emergence tests were conducted by the following procedure. Topsoil was sieved to pass through a 1.27 cm screen. Fertilizer was added to the topsoil and the mixture was then sterilized by heating. The topsoil mixture was placed in a pot and compacted to a depth of 1.0 to 1.25 cm from the top of the pot. Seeds of each of several monocotyledonous and dicotyledonous annual plant species were placed on top of the soil. Additional soil was subsequently placed over the seeds to level-fill the pot. A known amount of each test compound dissolved or suspended in an appropriate organic solvent was diluted with a 50:50 mix of acetone and water and applied to the surface of the soil. After treatment the plants were placed in a greenhouse where they received 0.64 cm of overhead irrigation. All subsequent watering consisted of a light overhead mist and/or subirrigation as needed for germination and growth. Tables 5 and 6 below relate to warm season plant species which were placed after pre-emergence treatment in a greenhouse with a 30/21° C. day/night temperature regime. Tables 7 and 8 below relates to cool season plant species placed after pre-emergence treatment in a greenhouse or growth chamber with an 18/13° C. day/night temperature regime.
(§5) Approximately 14 days after planting and treating, the plants were observed and herbicidal efficacy recorded as percent inhibition by comparison with untreated plants.
(§6) The plant species usually regarded as weeds which were utilized in the tests are identified in the tables below according to the following legend, in which “d” indicates a dicotyledonous species and “m” a monocotyledonous species. All monocotyledonous species included in the tests herein are grasses.

[7] = test system: VERPE (creeping speedwell); test: Pre-emergence herbicidal activity, cool season; assay type: in vivo, Veronica persicaria; settings: lowest tested rate with 80% or greater inhibition; rates 300, 100, 30, 10 g/ha; about 14 days
In short: as §1

SASKR (russian thistle) = test: Pre-emergence herbicidal activity, cool season; assay type: in vivo, Salsola kali; settings: lowest tested rate with 80% or greater inhibition; rates 300, 100, 30, 10 g/ha; about 14 days
In short: as §1

STEME (common chickweed) = test: Pre-emergence herbicidal activity, cool season; assay type: in vivo, Stellaria media; settings: lowest tested rate with 80% or greater inhibition; rates 300, 100, 30, 10 g/ha; about 14 days
In short: as §1

[8] = test system: LAMPU (purple deadnettle); test: Pre-emergence herbicidal activity, cool season; assay type: in vivo, Lamium purpureum; settings: lowest tested rate with 80% or greater inhibition; rates 300, 100, 30, 10 g/ha; about 14 days
In short: as §1

ALOMY (blackgrass) = test: Pre-emergence herbicidal activity, cool season; assay type: in vivo, Alopecurus myosuroides; settings: GR80 = lowest tested rate (300, 100, 30, 10 g/ha) with 80% or greater inhibition; approx. 14 days after treating; 18/13° C.
In short: as §1

SETVI (green foxtail) = test: Pre-emergence herbicidal activity, cool season; assay type: in vivo, Setaria viridis; settings: GR80 = lowest tested rate (300, 100, 30, 10 g/ha) with 80% or greater inhibition; approx. 14 days after treating; 18/13° C.
In short: as §1

[9] = test system: AGSST (creeping bentgrass); test: Pre-emergence herbicidal activity, cool season; assay type: in vivo, Agrostis stolonifera; settings: GR80 = lowest tested rate (300, 100, 30, 10 g/ha) with 80% or greater inhibition; approx. 14 days after treating; 18/13° C.
In short: as §1

[10] = test system: AGRRE (quackgrass (seedling)); test: Pre-emergence herbicidal activity, cool season; assay type: in vivo, Elymus repens; settings: GR80 = lowest tested rate (300, 100, 30, 10 g/ha) with 80% or greater inhibition; approx. 14 days after treating; 18/13° C.
Procedure: as §3, §4, §5, §6

DATST (jimsonweed) = test: Pre-emergence herbicidal activity, warm season; assay type: in vivo, Datura stramonium; settings: GR80 = lowest tested rate (300, 100, 30, 10 g/ha) with 80% or greater inhibition; approx. 14 days after treating; 30/21° C.
In short: as §1

PANDI (fall panicum) = test: Pre-emergence herbicidal activity, warm season; assay type: in vivo, Panicum dichotomiflorum; settings: GR80 = lowest tested rate (300, 100, 30, 10 g/ha) with 80% or greater inhibition; approx. 14 days after treating; 30/21° C.
In short: as §2

Compound	Pre-emergence activity (GR80) AMARE (AMARE (redroot pigweed)) [g/ha]	Pre-emergence activity (GR80) CHEAL [1] [g/ha]	Pre-emergence activity (GR80) ECHCG (ECHCG (barnyardgrass)) [g/ha]	Pre-emergence activity (GR80) PANMI [3] [g/ha]	Pre-emergence activity (GR80) SORHA [4] [g/ha]	Pre-emergence activity (GR80) SETFA (SETFA (giant foxtail)) [g/ha]	Pre-emergence activity (GR80) BRAPP [5] [g/ha]	Pre-emergence activity (GR80) DIGSA (DIGSA (large crabgrass)) [g/ha]	Pre-emergence activity GR80, GALAP [6]	Pre-emergence activity GR80, POLCO (POLCO (wild buckwheat))	Pre-emergence activity GR80, SINAR (SINAR (wild mustard))	Pre-emergence activity GR80, KCHSC (KCHSC (kochia))	Pre-emergence activity GR80, VERPE [7]	Pre-emergence activity GR80, SASKR (SASKR (russian thistle))	Pre-emergence activity GR80, STEME (STEME (common chickweed))	Pre-emergence activity GR80, LAMPU [8]	Pre-emergence activity (GR80) ALOMY (ALOMY (blackgrass))	Pre-emergence activity (GR80) AGSST [9] [g/ha]	Pre-emergence activity (GR80) AGRRE [10]	other results
CCN(CC)C(=O)n1cnc(S(=O)(=O)C(F)(F)c2ccccc2)n1 [Example 5]	100	300	300	100	100	100	300	100	[empty]	[empty]	100 g/ha	[empty]	100 g/ha	300 g/ha	[empty]	[empty]	* (activity observed, at least at highest rate, but <80% inhibition)	30	* (activity observed, at least at highest rate, but <80% inhibition)	Pre-emergence activity (GR80) SOLNI (SOLNI (black nightshade)): 300 g/ha; Pre-emergence activity (GR80) CIRAR [2]: 100 g/ha; Pre-emergence activity (GR80) SETVI (SETVI (green foxtail)): 100 g/ha
CCOC(=O)C(F)(F)S(=O)(=O)c1ncn(C(=O)N(CC)CC)n1 [Example 7]	300	300	300	300	300	300	300	300	[empty]	[empty]	* (activity observed, at least at highest rate, but <80% inhibition)	[empty]	[empty]	[empty]	30 g/ha	[empty]	* (activity observed, at least at highest rate, but <80% inhibition)	300	300 g/ha	Pre-emergence activity (GR80) DATST (DATST (jimsonweed)): 300 g/ha; Pre-emergence activity (GR80) PANDI (PANDI (fall panicum)): 300 g/ha
